Measured values: US9061041B2, “2′-substituted nucleoside derivatives and methods of use thereof for the treatment of viral diseases” (Merck Sharp & Dohme Corp., priority 2011, dated 2015)

Experiments:
[1] = tested on: human cryopreserved hepatocyte; assay type: in vitro ADME; settings: human hepatocytes, NTP level over Ki
Description: A 2 mM stock solution of the prodrug test compound is prepared in 5% DMSO/95% MeOH to provide a final sample concentration of 10 μM. A 5 μL aliquot is removed from this stock solution and added to 1 mL of either a rat or human cryopreserved hepatocyte sample to provide a control sample at a concentration of 1 million cells/mL. This sample is assayed in triplicate and used as a test sample.
Human and rat hepatocytes are removed from liquid nitrogen storage and thawed by submerging the hepatocyte tube into a pre-heated 37° C. waterbath and gently shaking the tube back & forth until thawed. The thawed hepatocytes are then gently poured into a container of Hepatocyte Basal Medium (50 mL, pre-warmed to 37° C.) and washed. […]
A 1 mL aliquot is removed from the 1 million cells/mL final hepatocyte suspension, analyzed in triplicate and placed into 20 mL scintillation vial without a cap. […]
The incubated hepatocyte suspension samples are transferred to a micro-centrifuge tube using a transfer pipette and centrifuged at 500 rpm for 4 minutes at room temperature. […] The resulting extract solution is then stored in a refrigerator at 4° C. until ready for use, at which point the sample is first subjected to vortexing/sonication to ensure that all hepatocyte cells have burst. […]

[2] = biological target: HCV NS5B RNA-dependent RNA polymerase (1b-BKΔ55) (Hepatitis C virus genotype 1b (isolate BK) (HCV), UniProt P26663); assay: biochemical
Sequence of HCV NS5B RNA-dependent RNA polymerase (1b-BKΔ55) (P26663 2420-2955): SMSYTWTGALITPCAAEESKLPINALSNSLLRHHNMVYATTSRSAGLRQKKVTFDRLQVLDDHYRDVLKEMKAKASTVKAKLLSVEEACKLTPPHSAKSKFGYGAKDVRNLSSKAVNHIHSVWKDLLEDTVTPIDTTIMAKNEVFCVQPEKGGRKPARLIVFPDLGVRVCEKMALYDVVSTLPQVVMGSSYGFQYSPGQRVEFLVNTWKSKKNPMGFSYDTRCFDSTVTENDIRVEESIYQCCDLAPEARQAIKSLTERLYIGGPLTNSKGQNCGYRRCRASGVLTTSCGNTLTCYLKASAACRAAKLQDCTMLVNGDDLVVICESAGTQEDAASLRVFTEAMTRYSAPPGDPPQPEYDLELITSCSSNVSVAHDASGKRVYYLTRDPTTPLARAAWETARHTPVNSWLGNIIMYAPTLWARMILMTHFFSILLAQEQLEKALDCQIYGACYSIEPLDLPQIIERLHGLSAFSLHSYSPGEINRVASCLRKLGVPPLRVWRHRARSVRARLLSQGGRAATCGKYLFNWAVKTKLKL

| SMILES | Human Hepatocyte NTP (4 hour at 10 μM)/Ki [1] | IC50 [2] |
| --- | --- | --- |
| CC(C)OC(=O)[C@H](C)NP(=O)(OC[C@H]1O[C@@H](n2ccc(=O)[nH]c2=O)[C@](C)(N)[C@@H]1O)Oc1ccccc1 (some centres unmarked) [drawing 226] | 30 x |  |
| C[C@@]1(N)[C@H](O)[C@@H](COP(=O)(O)OP(=O)(O)OP(=O)(O)O)O[C@H]1n1ccc(N)nc1=O [Compound 81] |  | 2300 nM |
| CCOC(=O)[C@H](C)NP(=O)(OC[C@H]1O[C@@H](n2cnc3c(OC)nc(N)nc32)[C@](C)(N)[C@@H]1O)Oc1ccccc1 (some centres unmarked) [drawing 225] | 32 x |  |
| C[C@@]1(N)[C@H](O)[C@@H](COP(=O)(O)OP(=O)(O)OP(=O)(O)O)O[C@H]1n1cnc2c(=O)[nH]c(N)nc21 [Compound 80] |  | 600 nM |
| C[C@@]1(N)[C@H](O)[C@@H](COP(=O)(O)OP(=O)(O)OP(=O)(O)O)O[C@H]1n1ccc(=O)[nH]c1=O [Compound 82] |  | 13000 nM |
